From patent US12336991B2, “Factor XIIA inhibitors” (UNIVERSITY OF LEEDS, priority 2018, dated 2025)
pKi: −log10 of the molar value.

Experiments:
Type in all cases: biochemical
thrombin = biological target: T1, thrombin (Homo sapiens, UniProt P00734); experiment: Determination of selectivity: thrombin inhibition, chromogenic substrate GPR assay; conditions: fold selectivity for FXIIa over thrombin
T1 construct: FXa (5 nM) and thrombin (5 nM)
Summary of the method: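 Thrombin (5 nM) preincubated with compound 10 min at 37 °C in 50 mM Tris, 137 mM NaCl, pH 7.4, 5% DMSO, then GPR substrate ([…]) added. Absorbance at 405 nm read kinetically for 3 h; IC50 from initial rates, converted to Ki via Ki=IC50/(1+[S]/Km).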

FXa = FXa (Homo sapiens, UniProt P00742); experiment: Determination of selectivity: FXa inhibition, chromogenic substrate S2765 assay; conditions: fold selectivity for FXIIa over FXa
Summary of the method: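 Human FXa (5 nM) preincubated with compound (top 500 μM, 5% DMSO) 10 min at 37 °C in 50 mM Tris, 137 mM NaCl pH 7.4, then S2765 ([…]) added; A405 kinetics over 3 h at 37 °C. IC50 from initial rates, converted to Ki via Cheng-Prusoff.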

FXIIa = biological target: T2, FXIIa (Homo sapiens, UniProt P00748); experiment: Determination of Factor XIIa inhibition, chromogenic substrate S-2302 assay; conditions: human FXIIa alpha
T2 sequence (P00748 373-615 limits assumed): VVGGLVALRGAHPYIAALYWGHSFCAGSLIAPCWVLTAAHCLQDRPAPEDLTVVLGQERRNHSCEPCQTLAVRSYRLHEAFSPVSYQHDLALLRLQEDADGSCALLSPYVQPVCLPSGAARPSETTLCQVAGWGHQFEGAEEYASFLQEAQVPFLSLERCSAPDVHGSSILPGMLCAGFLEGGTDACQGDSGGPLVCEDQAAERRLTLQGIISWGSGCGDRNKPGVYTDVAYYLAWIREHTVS
T2 sequence (P00748 20-372 partner limits assumed): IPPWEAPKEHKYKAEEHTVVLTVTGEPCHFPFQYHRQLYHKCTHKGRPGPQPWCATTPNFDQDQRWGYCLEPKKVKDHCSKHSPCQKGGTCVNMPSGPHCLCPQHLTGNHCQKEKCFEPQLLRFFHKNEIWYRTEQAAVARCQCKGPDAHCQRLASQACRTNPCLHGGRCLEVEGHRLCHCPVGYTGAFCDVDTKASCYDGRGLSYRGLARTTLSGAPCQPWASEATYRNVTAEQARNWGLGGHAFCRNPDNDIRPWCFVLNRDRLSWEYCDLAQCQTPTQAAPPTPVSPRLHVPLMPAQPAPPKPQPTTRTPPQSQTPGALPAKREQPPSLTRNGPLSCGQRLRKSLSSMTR
Summary of the method: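 FXIIa (10 nM) preincubated with compound 10 min at 37° C. in 50 mM Tris, 137 mM NaCl pH 7.4, 5% DMSO, top concentration 500 μM, then S-2302 added ([…]). Absorbance at 405 nm read kinetically for 3 h; IC50 from initial rates, converted to Ki by Cheng-Prusoff.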

Chain of FXa (P00742 235-488 limits assumed): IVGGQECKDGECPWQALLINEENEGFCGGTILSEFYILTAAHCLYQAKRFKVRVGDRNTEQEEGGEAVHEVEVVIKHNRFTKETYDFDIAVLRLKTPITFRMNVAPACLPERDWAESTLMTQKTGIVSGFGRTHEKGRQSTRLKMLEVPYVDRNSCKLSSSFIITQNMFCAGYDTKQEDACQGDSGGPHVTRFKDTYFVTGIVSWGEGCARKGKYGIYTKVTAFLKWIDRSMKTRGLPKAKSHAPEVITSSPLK
Chain of FXa (P00742 41-179 partner limits assumed): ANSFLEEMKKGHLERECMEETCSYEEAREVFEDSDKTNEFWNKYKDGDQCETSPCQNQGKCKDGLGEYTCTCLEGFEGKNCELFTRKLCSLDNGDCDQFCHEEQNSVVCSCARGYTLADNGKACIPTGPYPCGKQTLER

| SMILES | Thrombin (human)/FXIIa alpha (human) (thrombin) | FXa (human)/FXIIa alpha (human) (FXa) | pKi (FXIIa) |
| --- | --- | --- | --- |
| COc1ccc(C[C@@H]2C[C@@H](C(=O)NCc3ccc4c(c3)nnn4C)N(C(=O)[C@H](N)CCc3ccccn3)C2)cc1 [Example M05453] | +++ (fold selectivity values greater than 100) | ∘∘∘ | > 6.70 |
| Cn1nnc2cc(CNC(=O)[C@@H]3C[C@H](NCCCc4ccccc4)CN3C(=O)[C@H](N)CCc3ccccc3)ccc21 [Example M05206] | ++ (fold selectivity value of 10 to 100) | ∘∘ | < 5.70 |
| COc1ccc(C[C@@H]2C[C@@H](C(=O)NCc3ccc4c(c3)nnn4C)N(C(=O)C3NCCc4cc(O)ccc43)C2)cc1 (stereo partly drawn) [Example M05429] | ++ (fold selectivity value of 10 to 100) | ∘∘ | < 5.70 |
| CC(=O)N[C@H]1C[C@@H](C(=O)NCc2ccnc(N)c2)N(C(=O)[C@H](N)CCc2ccccc2)C1 [Example M05141] | + (fold selectivity values less than 10) | ∘ | < 5.70 |
| Cn1nnc2cc(CNC(=O)[C@@H]3C[C@H](NC(=O)CCc4ccccc4)CN3C(=O)[C@H](N)CCc3ccccc3)ccc21 [Example M05195] | ++ (fold selectivity value of 10 to 100) | ∘∘ | < 5.70 |
| CN(C)[C@H](CCC(=O)N1CCCC1)C(=O)N1C[C@H](Cc2ccncc2)C[C@H]1C(=O)NCc1ccc2c(c1)nnn2C [Example M05220] | +++ (fold selectivity values greater than 100) | ∘∘∘ | 5.70 to 6.70 |
| COc1cc(CNC(=O)[C@@H]2CCCN2C(=O)[C@H](N)CCc2ccccc2)cnc1CN [Example M05053] | + (fold selectivity values less than 10) | ∘∘ | < 5.70 |
| COc1ccc(C[C@@H]2C[C@@H](C(=O)NCc3ccc4c(c3)nnn4C)N(C(=O)C3NCCc4cc(Cl)ccc43)C2)cc1 (stereo partly drawn) [Example M05431] | ++ (fold selectivity value of 10 to 100) | ∘∘ | < 5.70 |
| COc1ccc(C[C@@H]2C[C@@H](C(=O)NCc3ccc4c(c3)nnn4C)N(C(=O)[C@H]3C[C@@H](c4ncccn4)CN3)C2)cc1 [Example M05387] | +++ (fold selectivity values greater than 100) | ∘∘∘ | 5.70 to 6.70 |
| COc1ccc(C[C@@H]2C[C@@H](C(=O)NCc3cc4ccncc4[nH]3)N(C(=O)[C@H](N)CCC(=O)N3CCCC3)C2)cc1 [Example M00952] | +++ (fold selectivity values greater than 100) | ∘∘∘ | > 6.70 |
| Cn1nnc2cc(CNC(=O)[C@@H]3C[C@@H](Cc4ccc(C(F)(F)F)cc4)CN3C(=O)[C@H]3C[C@@H](c4ccccc4)CN3)ccc21 [Example M05334] | ++ (fold selectivity value of 10 to 100) | ∘∘ | 5.70 to 6.70 |
| COc1ccc(C[C@@H]2C[C@@H](C(=O)NCc3ccc4c(c3)nnn4C)N(C(=O)[C@H]3C[C@@H](c4ccccc4)CN3)C2)cc1 [Example M05289] | +++ (fold selectivity values greater than 100) | ∘∘∘ | 5.70 to 6.70 |
| Cn1nnc2cc(CNC(=O)[C@@H]3C[C@@H](Cc4ccc(Cl)cc4Cl)CN3C(=O)[C@H]3C[C@@H](c4ccccc4)CN3)ccc21 [Example M05373] | ++ (fold selectivity value of 10 to 100) | ∘∘ | 5.70 to 6.70 |
| COc1ccc(C[C@@H]2C[C@@H](C(=O)NCc3ccc4c(c3)nnn4C)N(C(=O)[C@H]3CC(c4ccc[nH]c4=O)CN3)C2)cc1 (stereo partly drawn) [Example M05419] | +++ (fold selectivity values greater than 100) | ∘∘∘ | > 6.70 |
| COc1ccc(C[C@@H]2C[C@@H](C(=O)NCc3ccc4c(c3)nnn4C)N(C(=O)[C@H](N)CCC(=O)N3C(C)CCC3C)C2)cc1 (stereo partly drawn) [Example M05399] | +++ (fold selectivity values greater than 100) | ∘∘∘ | > 6.70 |
| COc1ccc(C[C@@H]2C[C@@H](C(=O)NCc3ccc4c(c3)nnn4C)N(C(=O)[C@H]3C[C@@H](c4ccccc4OC(F)(F)F)CN3)C2)cc1 [Example M05388] | +++ (fold selectivity values greater than 100) | ∘∘∘ | 5.70 to 6.70 |
| COc1ccc(C[C@@H]2C[C@@H](C(=O)NCc3ccc4c(c3)nnn4C)N(C(=O)[C@H](N)CCc3ccccc3)C2)cc1 [Example M05302] | +++ (fold selectivity values greater than 100) | ∘∘∘ | 5.70 to 6.70 |
| Cn1nnc2cc(CNC(=O)[C@@H]3CC(Cc4ccc(F)c(Cl)c4F)CN3C(=O)[C@H](N)CCC(=O)N3CCCC3)ccc21 (stereo partly drawn) [Example M05295] | +++ (fold selectivity values greater than 100) | ∘∘∘ | 5.70 to 6.70 |
| Cn1nnc2cc(CNC(=O)[C@@H]3C[C@@H](CC4CCCC4)CN3C(=O)[C@H](N)CCC(=O)N3CCCC3)ccc21 [Example M05291] | +++ (fold selectivity values greater than 100) | ∘∘∘ | 5.70 to 6.70 |
| Cn1nnc2cc(CNC(=O)[C@@H]3C[C@@H](Cc4ccncc4)CN3C(=O)[C@H](N)CCC(=O)N3CCCC3)ccc21 [Example M05189] | +++ (fold selectivity values greater than 100) | ∘∘∘ | 5.70 to 6.70 |
| COC(=O)N[C@H]1C[C@@H](C(=O)NCc2ccc3c(c2)nnn3C)N(C(=O)[C@H](N)CCc2ccccc2)C1 [Example M05207] | ++ (fold selectivity value of 10 to 100) | ∘∘ | < 5.70 |
| CN(C)[C@H](CCC(=O)N1CCCC1)C(=O)N1C[C@H](Cc2cccnc2)C[C@H]1C(=O)NCc1ccc2c(c1)nnn2C [Example M05222] | +++ (fold selectivity values greater than 100) | ∘∘∘ | 5.70 to 6.70 |
| Cn1nnc2cc(CNC(=O)[C@]3(C)CCCN3C(=O)[C@H](N)CCC(=O)N3CCCC3)ccc21 [Example M05318] | + (fold selectivity values less than 10) | ∘∘ | < 5.70 |
| COc1ccc(C[C@@H]2C[C@@H](C(=O)NCc3ccc4c(c3)nnn4C)N(C(=O)[C@H]3CC(c4cccnc4C)CN3)C2)cc1 (stereo partly drawn) [Example M05406] | +++ (fold selectivity values greater than 100) | ∘∘∘ | 5.70 to 6.70 |
| Cn1nnc2cc(CNC(=O)[C@@H]3C[C@@H](Cc4ccncc4)CN3C(=O)[C@@H](CCC(=O)N3CCCC3)NS(=O)(=O)c3ccccc3)ccc21 [Example M05290] | +++ (fold selectivity values greater than 100) | ∘∘ | < 5.70 |
